{"source": "the supplement of paper PMC11061612", "experiment_in_all_cases": "combination Emax (second highest fraction inhibited in the dose matrix, 72 h); higher = more inhibition; extreme values may be limits of the assay", "key": {"[1]": {"system": "SW626 (Colorectal Carcinoma)", "procedure,_shortened": "(§1)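 Cell lines in DMEM/F12 or RPMI with 10% FBS were plated in 1536-well plates, held 24 hours at 37°C, 5% CO2, then given two-drug dose matrices for 72 hours (DMSO typically 0.2%). Viability was read by CellTiter-Glo 2.0 luminescence and scaled as inhibition from 0 (vehicle wells) to 1 (blank wells). Combination Emax is the second-highest inhibition in the matrix; Bliss excess is observed combination effect minus expected EA + EB − EA·EB, EA and EB being single-agent effects.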"}, "[2]": {"system": "CAL-51 (Breast Carcinoma)", "procedure,_shortened": "as §1"}, "[3]": {"system": "639-V (Bladder Carcinoma)", "procedure,_shortened": "as §1"}, "[4]": {"system": "CTB-1 (B-Cell Non-Hodgkin's Lymphoma)", "procedure,_shortened": "as §1"}, "[5]": {"system": "TE-4 (Esophageal Squamous Cell Carcinoma)", "procedure,_shortened": "as §1"}, "[6]": {"system": "KYSE-410 (Esophageal Squamous Cell Carcinoma)", "procedure,_shortened": "as §1"}, "[7]": {"system": "MHH-PREB-1 (B-Cell Non-Hodgkin's Lymphoma)", "procedure,_shortened": "as §1"}}, "data": [{"molecule": "CN(CCO)CC[C@H](CSc1ccccc1)Nc1ccc(S(=O)(=O)NC(=O)c2ccc(N3CCC([C@@H](O)c4ccccc4-c4ccc(Cl)cc4)CC3)cc2)cc1S(=O)(=O)C(F)(F)F", "note": "[AZD4320] + C[C@@H](Nc1cc(F)cc(F)c1)c1cc(C(=O)N(C)C)cc2c(=O)cc(N3CCOCC3)oc12 [AZD8186] (first compound max 1 µM, 7x7, partner max 3 µM)", "values": [{"measurement": "combination Emax", "setting": "[1]", "value": 0.651}, {"measurement": "combination Emax", "setting": "[2]", "value": 0.443}, {"measurement": "combination Emax", "setting": "[3]", "value": 1}, {"measurement": "combination Emax", "setting": "[4]", "value": 0.669}, {"measurement": "combination Emax", "setting": "[5]", "value": 0.333}, {"measurement": "combination Emax", "setting": "[6]", "value": 0.299}, {"measurement": "combination Emax", "setting": "[7]", "value": 0.277}]}]}
